Results taken from US20060240986A1, “Herbicidal method” (Sumitomo Chemical Company, Limited, priority 2005, published 2006).

Columns and labels:
[1] = test system: onion (Allium cepa); assay: Test Example 2, vegetable field: phytotoxicity; assay type: in vivo; conditions: 20 g/ha active ingredient; granules to soil surface the day after seeding; grown 29 days
Source text: (§1) Plastic pots each having a diameter of 18 cm and depth of 14 cm were filled with upland soil, and then seeded with barnyardgrass (Echinochloa crus-gall) and onion (Allium cepa).

[2] = test system: kudzu (Pueraria lobata); assay: Test Example 12, non-cultivated land: herbicidal activity; assay type: in vivo; conditions: sprayed to soil surface the day after seeding, 14 days in greenhouse
Source text: Plastic pots each having a diameter of 9 cm and depth of 7 cm were filled with upland soil, and then seeded with kudzu (Pueraria lobata).

[3] = test system: barnyardgrass (Echinochloa crus-gall); assay: Test Example 2, vegetable field: herbicidal activity; assay type: in vivo, Echinochloa crus-galli; conditions: granules to soil surface the day after seeding, grown 29 days
Source text: as §1

[4] = test system: strawberry (Fragaria ananassa); assay: Test Example 5, vegetable field: phytotoxicity; assay type: in vivo; conditions: 40 g/ha active ingredient; transplanted seedlings; granules to soil surface the next day; 17 days in greenhouse
Source text: (§2) Plastic pots each having a diameter of 18 cm and depth of 14 cm were filled with upland soil, seedlings of strawberry (Fragaria ananassa) was transplanted and then seeded with giant foxtail (Setaria faberi).

[5] = test system: giant foxtail (Setaria faberi); assay: Test Example 5, vegetable field: herbicidal activity; assay type: in vivo; conditions: granules to soil surface the day after seeding, 17 days in greenhouse
Source text: as §2

[6] = test system: yellow nutsedge (Cyperus esculentus); assay: Test Example 1, peanut field: herbicidal activity; assay type: in vivo; conditions: sprayed over plants grown 12 days, examined 7 days after application
Method: (§3) Plastic pots each having a diameter of 18 cm and depth of 14 cm were filled with upland soil, and then seeded with yellow nutsedge (Cyperus esculentus), hemp sesbania (Seshania exaltata) and sicklepod (Cassia obtusifolia). In a greenhouse, they were grown for 12 days. Flumioxazin water dispersible granules (commercial name: Valor SX, produced by Valent U.S.A.), Imazosulfuron emulsifiable concentrate (produced by mixing well 5 parts of Imazosulfuron, 65 parts of cyclohexanone, 13 parts of Sorpol 2680 (Toho Chemical's product) and 17 parts of dimethylformamide) and a mixture of the Flumioxazin water dispersible granules and the Imazosulfuron emulsifiable concentrate were independently diluted in their designated amounts with water. Each dilution was uniformly sprayed over the test plants with a small sprayer. […] Further, the pots were seeded with peanut (Arachis hypogea) 7 days after the application, and the phytotoxicity against the crop was examined 10 days after the seeding.

[7] = test system: sicklepod (Cassia obtusifolia); assay: Test Example 1, peanut field: herbicidal activity; assay type: in vivo; conditions: sprayed over plants grown 12 days, examined 7 days after application
Method: as §3

[8] = test system: hemp sesbania (Seshania exaltata); assay: Test Example 1, peanut field: herbicidal activity; assay type: in vivo; conditions: sprayed over plants grown 12 days, examined 7 days after application
Method: as §3

[9] = test system: peanut (Arachis hypogea); assay: Test Example 1, peanut field: phytotoxicity against crop; assay type: in vivo; conditions: peanut seeded 7 days after application, examined 10 days after seeding
Method: as §3

C#CCN1C(=O)COc2cc(F)c(N3C(=O)C4=C(CCCC4)C3=O)cc21 [Flumioxazin, N-(7-fluoro-3,4-dihydro-3-oxo-4-prop-2-ynyl-2H-1,4-benzoxadin-6-yl)cyclohex-1-ene-1,2-dicarboxamide]
2: Herbicidal activity giant foxtail ([5]; 40 g/ha active ingredient)
0: Herbicidal activity Ce ([6]; 30 g/ha active ingredient) | Herbicidal activity Ce ([6]; 60 g/ha active ingredient) | Herbicidal activity Co ([7]; 30 g/ha active ingredient)
1: Herbicidal activity kudzu ([2]; 100 g/ha active ingredient) | Herbicidal activity Barnyardgrass ([3]; 20 g/ha active ingredient) | Herbicidal activity Co ([7]; 60 g/ha active ingredient) | Herbicidal activity Se ([8]; 30 g/ha active ingredient) | Herbicidal activity Se ([8]; 60 g/ha active ingredient)
No damage: Phtotoxicity Onion [1] | Phtotoxicity strawberry [4] | Phytotoxicity against crop Peanut ([9]; 30 g/ha active ingredient) | Phytotoxicity against crop Peanut ([9]; 60 g/ha active ingredient)

COc1cc(OC)nc(NC(=O)NS(=O)(=O)c2c(Cl)nc3ccccn23)n1 [Imazosulfuron, 1-(2-chloroimidazo[1,2-a]pyridin-3-ylsulfonyl)-3-(4,6-dimethoxypyrimidin-2-yl)urea]
3: Herbicidal activity Se ([8]; 120 g/ha active ingredient)
0: Herbicidal activity Barnyardgrass ([3]; 50 g/ha active ingredient) | Herbicidal activity giant foxtail ([5]; 50 g/ha active ingredient)
2: Herbicidal activity kudzu ([2]; 500 g/ha active ingredient) | Herbicidal activity Ce ([6]; 60 g/ha active ingredient) | Herbicidal activity Ce ([6]; 120 g/ha active ingredient) | Herbicidal activity Se ([8]; 60 g/ha active ingredient)
1: Herbicidal activity kudzu ([2]; 100 g/ha active ingredient) | Herbicidal activity giant foxtail ([5]; 250 g/ha active ingredient) | Herbicidal activity Co ([7]; 60 g/ha active ingredient) | Herbicidal activity Co ([7]; 120 g/ha active ingredient)
